Laboratory results published in publication PMC8617507 (Proceedings of the National Academy of Sciences of the …, 2021).
Several values for one entry are separate records, joined by “and”; a condition that tells them apart may be missing. Equal entries are not always repeated. Where two headings read alike, the source gives them in different places.

Key:
[1] = tested on: B. subtilis PypuA-lacZ (cell wall) bioreporter; test: β-Galactosidase reporter assay, cell wall reporter; format: cell-based, Bacillus subtilis; conditions: 10 µg THCz-1, 20 µg THCz-40, 80 µg THCz-39, 100 µg THCz-5 spotted on agar
[2] = tested on: B. subtilis PliaI-lux LiaRS bioreporter; test: Luciferase reporter assay; format: cell-based, Bacillus subtilis; conditions: 2 µg/mL THCz-1, 128 µg/mL THCz-5, 8 µg/mL THCz-39, 4 µg/mL THCz-40
[3] = tested on: Lung epithelial A549 cells; test: cells; conditions: Homo sapiens
[4] = tested on: Lung epithelial A549 cells
[5] = tested on: S. pneumoniae; test: MIC, broth microdilution; format: cell-based, Streptococcus pneumoniae; conditions: for MIC: Streptococcus pneumoniae, S. pneumoniae T4 in supplemented C+Y medium, most abundant MIC, Table 2; for reduction in MIC in comparison to THCz-1: S. pneumoniae T4, vs. original screening hit THCz-1
[6] = tested on: B. subtilis GFP-MinD; test: MinD delocalization studies; format: cell-based, Bacillus subtilis; conditions: within 5 min
[7] = tested on: PBP2; test: PBP2-catalyzed transglycosylation of lipid II in vitro; format: biochemical, S. aureus; conditions: compared to THCz-1 and THCz-40
[8] = tested on: B. subtilis 168; test: Bacterial cell wall integrity assay; format: cell-based, Bacillus subtilis; conditions: 30 min exposure; phase-contrast microscopy
[9] = tested on: S. pneumoniae T4; test: Lysis and killing kinetics; conditions: THCz-1 5.1 µg/mL, penicillin G 0.06 μg/mL, tetracycline 2 μg/mL

c1ccc(CCOC2CCCc3c2[nH]c2ccccc32)cc1 (centres unmarked) [THCz-5]
induction of the cell wall responsive reporter strain [1]: but not THCz-5 | induction of PliaI-lux bioluminescence (LiaRS stress response) [2]: except for the inactive analog THCz-5 | IC50 [3]: 141 µM and 41 µg/mL | increase of IC50 (cytotoxicity) ([4]; THCz-5 vs. THCz-19): about sixfold | MIC [5]: > 100 µM and > 29.1 µg/mL | delocalization of GFP-MinD (membrane depolarization) [6]: MinD delocalization was also observed

c1ccc(CCNC2CCCc3c2oc2ccc(-c4ccccc4)cc32)cc1 (centres unmarked) [THCz-6]
IC50 [3]: 134 µM and 49.3 µg/mL | increase of IC50 (cytotoxicity) ([4]; THCz-6 vs. THCz-2): about sevenfold | MIC [5]: 50 µM and 18.4 µg/mL

c1ccc(CCNC2CCCc3c2[nH]c2ccccc32)cc1 (centres unmarked) [THCz-19]
IC50 [3]: 22.2 µM and 6.8 µg/mL | MIC [5]: 6.3 µM and 1.9 µg/mL

Cc1ccc2[nH]c3c(c2c1)CCCC3NCCc1ccc(O)cc1 (centres unmarked) [THCz-39]
induction of the cell wall responsive reporter strain [1]: specifically induced | IC50 [3]: 33.4 µM and 10.7 µg/mL | reduction in MIC in comparison to THCz-1 [5]: twofold to fourfold | MIC [5]: 6.3 µM to 12.5 µM and 2 µg/mL to 4 µg/mL | higher concentration required for full inhibition of the PBP2-catalyzed reaction [7]: fourfold | cell shape deformations / cell membrane blebbing [8]: induced characteristic cell shape deformations

Cc1ccc2[nH]c3c(c2c1)CCCC3NCCc1ccc(Br)cc1 (centres unmarked) [THCz-40]
induction of the cell wall responsive reporter strain [1]: specifically induced | IC50 [3]: 28 µM and 10.7 µg/mL | reduction in MIC in comparison to THCz-1 [5]: twofold to fourfold | MIC [5]: 6.3 µM and 2.4 µg/mL | cell shape deformations / cell membrane blebbing [8]: induced characteristic cell shape deformations

CN(C)[C@@H]1C(O)=C(C(N)=O)C(=O)[C@@]2(O)C(O)=C3C(=O)c4c(O)cccc4[C@@](C)(O)[C@H]3C[C@@H]12 [Tet, tetracycline]
lysis kinetics [9]: growth-inhibitory phenotype without any prominent lysis

CN[C@H](CC(C)C)C(=O)N[C@H]1C(=O)N[C@@H](CC(N)=O)C(=O)N[C@H]2C(=O)N[C@H]3C(=O)N[C@H](C(=O)N[C@H](C(=O)O)c4cc(O)cc(O)c4-c4cc3ccc4O)[C@H](O)c3ccc(c(Cl)c3)Oc3cc2cc(c3O[C@@H]2O[C@H](CO)[C@@H](O)[C@H](O)[C@H]2O[C@H]2C[C@](C)(N)[C@H](O)[C@H](C)O2)Oc2ccc(cc2Cl)[C@H]1O [vancomycin]
cell shape deformations / cell membrane blebbing [8]: Membrane blebbing was also observed

bacitracin
cell shape deformations / cell membrane blebbing [8]: Membrane blebbing was also observed

nisin (ITSISLCTPGCKTGALMGCNMKTATCHCSIHVSK; not fully specified; Lantibiotic nisin-A; UniProt P13068 24-57, looked up)
cell shape deformations / cell membrane blebbing [8]: Membrane blebbing was also observed
